US8969554B2, “6-acyl-1,2,4-triazine-3,5-dione derivative and herbicides” (Kumiai Chemical Industry Co., Ltd., priority 2010, dated 2015)

Key:
Type in all cases: in vivo
[1] = tested on: Indian millet; experiment: Herbicidal activity by field soil treatment (Test example 2); design: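 index 0 to 10 in 10% steps of herbicidal effect with 10 meaning complete death and 0 below 10%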; settings: 1000 g effective component per hectare, day 21 after the treatment
Method in brief: (§1)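 Seeds were sown in field soil in 80 cm^2 pots and covered with soil. A water-diluted wettable powder was then sprayed onto the soil surface at 1000 liters per hectare, delivering 1000 g active ingredient per hectare. Plants grew in a greenhouse, and herbicidal effect was scored against set criteria 21 days after treatment.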

[2] = tested on: A. retroflexus; experiment: as above; design: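 index 0 to 10 in 10% steps of herbicidal effect with 10 meaning complete death and 0 below 10%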; settings: 1000 g effective component per hectare, day 21 after the treatment
Method in brief: as §1

[3] = tested on: Echinochloa crus-galli; experiment: as above; design: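 index 0 to 10 in 10% steps of herbicidal effect with 10 meaning complete death and 0 below 10%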; settings: 1000 g effective component per hectare, day 21 after the treatment
Method in brief: as §1

[4] = tested on: Echinochloa crus-galli; experiment: Herbicidal activity by field foliage treatment (Test example 3); design: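 index 0 to 10 in 10% steps of herbicidal effect with 10 meaning complete death and 0 below 10%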; settings: 1000 g effective component per hectare, day 14 after the treatment
Method in brief: (§2)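 Potted field-soil plants grown 2 weeks in a greenhouse were sprayed over the whole foliage with diluted wettable powder at 1000 L/ha, delivering 1000 g active ingredient per hectare. Herbicidal effect scored by visual criteria 14 days after treatment.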

[5] = tested on: Setaria viridis; experiment: as above; settings: 1000 g effective component per hectare, day 14 after the treatment;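 further: index 0 to 10 in 10% steps of herbicidal effect with 10 meaning complete death and 0 below 10%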
Method in brief: as §2

[6] = tested on: Indian millet; experiment: as above; design: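 index 0 to 10 in 10% steps of herbicidal effect with 10 meaning complete death and 0 below 10%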; settings: 1000 g effective component per hectare, day 14 after the treatment
Method in brief: (§3)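 Plants were grown from seed in field soil in a greenhouse for 2 weeks, then sprayed over the whole foliage with a water-diluted wettable powder at 1000 L/ha spray volume, delivering 1000 g active ingredient per hectare. Herbicidal effect was scored on day 14 after treatment.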

[7] = tested on: A. retroflexus; experiment: as above; design: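 index 0 to 10 in 10% steps of herbicidal effect with 10 meaning complete death and 0 below 10%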; settings: 1000 g effective component per hectare, day 14 after the treatment
Method in brief: as §3

[8] = tested on: foxtail; experiment: Herbicidal activity by field soil treatment (Test example 2); settings: 1000 g effective component per hectare, day 21 after the treatment;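 further: index 0 to 10 in 10% steps of herbicidal effect with 10 meaning complete death and 0 below 10%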
Method in brief: as §1

[9] = tested on: Monochoria vaginalis; experiment: Herbicidal activity by paddy field soil treatment (Test Example 1); design: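 index 0 to 10 in 10% steps of herbicidal effect with 10 meaning complete death and 0 below 10%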; settings: 1000 g of effective component per hectare, evaluated on day 21 after the treatment, criteria of Table 72
Method in brief: (§4)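 Seeds were sown in puddled paddy soil in pots flooded to 3 cm water depth; the next day a water-diluted wettable powder was applied to the water surface at 1000 g active ingredient/ha. Plants were grown in a greenhouse and herbicidal effect scored by graded criteria on day 21 after treatment.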

[10] = tested on: Scirpus juncoides Rocxb.; experiment: as above; design: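 index 0 to 10 in 10% steps of herbicidal effect with 10 meaning complete death and 0 below 10%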; settings: applied on water surface, 1000 g of effective component per hectare, day 21 after the treatment
Method in brief: as §4

[11] = tested on: Echinochloa oryzicola; experiment: as above; design: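 index 0 to 10 in 10% steps of herbicidal effect with 10 meaning complete death and 0 below 10%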; settings: 1000 g of effective component per hectare, evaluated on day 21 after the treatment, criteria of Table 72
Method in brief: as §4

SMILES	herbicidal effect index, Abutilon theophrasti [1]	herbicidal effect index, Amaranthus retroflexus [2]	herbicidal effect index, Echinochloa crus-galli [3]	herbicidal effect index, Echinochloa crus-galli [4]	herbicidal effect index, Setaria viridis [5]	herbicidal effect index, Abutilon theophrasti [6]	herbicidal effect index, Amaranthus retroflexus [7]	herbicidal effect index, Setaria viridis [8]	Herbicidal effects index number, Monochoria vaginalis [9]	herbicidal effect index, S. juncoides Rocxb. [10]	Herbicidal effects index number, Echinochloa oryzicola [11]
Cn1nc(C(=O)C2=C(O)CCCC2=O)c(=O)n(-c2ccc(OC(F)(F)F)cc2)c1=O [I-71]	10	10	10	10	9	9	10	6	10	10	10
Cc1cc(F)ccc1-n1c(=O)c(C(=O)C2=C(O)CCCC2=O)nn(C)c1=O [I-117]	10	10	10	9	9	9	8	7	10	10	10
COc1cc(-n2c(=O)c(C(=O)C3=C(O)CCCC3=O)nn(C)c2=O)cc(OC)c1OC [I-169]	9	10	10	9	9	9	8	10	10	10	10
Cn1nc(C(=O)C2=C(O)CCCC2=O)c(=O)n(-c2ccc(C#N)cc2)c1=O [I-74]	10	10	10	9	9	9	10	7	10	10	10
Cn1nc(C(=O)C2=C(O)CCCC2=O)c(=O)n(-c2c(F)cccc2F)c1=O [I-80]	9	10	9	10	7	9	10	9	10	10	10
CCCn1c(=O)c(C(=O)C2=C(O)CCCC2=O)nn(C)c1=O [I-3]	10	10	10	9	9	9	9	10	10	10	10
Cn1nc(C(=O)C2=C(O)CCCC2=O)c(=O)n(-c2ccc(F)cc2)c1=O [I-56]	10	9	10	10	10	10	10	10	10	10	10
Cc1ccc(-n2c(=O)c(C(=O)C3=C(O)CCCC3=O)nn(C)c2=O)cn1 [I-289]	9	10	9	9	7	9	10	7	10	10	10
Cc1cc(Br)ccc1-n1c(=O)c(C(=O)C2=C(O)CCCC2=O)nn(C)c1=O [I-282]	9	10	10	8	7	9	8	10	10	10	10
Cn1nc(C(=O)C2=C(O)CCCC2=O)c(=O)n(-c2cc(F)ccc2F)c1=O [I-79]	10	10	9	10	10	10	10	10	10	10	10
Cn1nc(C(=O)C2=C(O)CCCC2=O)c(=O)n(-c2ccccc2)c1=O [I-50, 6-(2-hydroxy-6-oxocyclohexa-1-enecarbonyl)-2-methyl-4-phenyl-1,2,4-triazine-3,5 (2H, 4H)-dione]	10	10	10	10	10	10	10	10	10	10	10
CC(C)c1ccccc1-n1c(=O)c(C(=O)C2=C(O)CCCC2=O)nn(C)c1=O [I-286]	9	10	10	10	10	9	10	9	10	9	10
Cc1c(F)cccc1-n1c(=O)c(C(=O)C2=C(O)CCCC2=O)nn(C)c1=O [I-116]	10	10	10	9	9	9	8	9	10	10	10
Cn1nc(C(=O)C2=C(O)CCCC2=O)c(=O)n(-c2ccccc2Cl)c1=O [I-51]	10	10	10	10	10	10	10	10	10	10	10
Cn1nc(C(=O)C2=C(O)CCCC2=O)c(=O)n(C2C=CCCC2)c1=O (stereo not drawn) [I-303]	9	10	9	8	10	9	10	9	10	10	10
